Columns and labels:
[1] = system: Thioredoxin Reductase 1 (Trx-1); assay: Intestinal gene expression: Thioredoxin Reductase 1; assay type: in vivo; conditions: mouse intestine; diet 1 ppm Se, 100 days; vs selenium deficient; all p < 0.01
From the text: (§1) Animal Care. Male C57BL/6J mice were housed singly and started on the experimental diets described below immediately after weaning (21 days of age). The mice were maintained in the Shared Aging Rodent Facility at the William S. Middleton Memorial Veterans Administration Medical Center (Madison, Wis.). Temperature and humidity were maintained at constant levels. Room light was controlled to provide 12-hr cycles of light and dark.
(§2) Experimental diets were created by Harlan Teklad (Madison, Wis.). Selenium content of the diets was determined by Covance Inc. (Madison, Wis.). Five (5) animals were included in each of the following treatment groups: a diet deficient in selenium (SD); a diet supplemented with selenomethionine (SM, obtained from Sigma, St. Louis, Mo.) such that the final selenium content of the diet was one (1) part per million; a diet supplemented with sodium selenite (SS, Sigma) such that the final concentration of selenium in this diet was one (1) part per million; or a diet supplemented with the yeast selenium SEL-PLEX (SP, Alltech, Lexington, Ky), such that the final concentration of selenium in this diet was one (1) part per million. SEL-PLEX. […]
(§3) Tissue sample preparation and microarray analysis. […] For intestinal expression studies, the intestine was flushed twice with saline solution and small intestine was measured and divided in three equal segments. […]

[2] = system: Glyoxalase 1 (Glo 1); assay: Intestinal gene expression: Glo1; assay type: in vivo; conditions: mouse intestine; diet 1 ppm Se, 100 days; vs selenium deficient
From the text: as §1, §2, §3

[3] = system: sprouty homolog 2 gene (Spry2); assay: Intestinal gene expression: Spry2; assay type: in vivo; conditions: mouse intestine; diet 1 ppm Se, 100 days; relative to Se-deficient controls
From the text: as §1, §2, §3

[4] = Body weight of mice on selenium diets; assay type: in vivo, mouse; conditions: diet 1 ppm Se, 100 days; compared across diets incl. selenium deficient diet (FIG. 1)
From the text: as §1
Experimental diets were created by Harlan Teklad (Madison, Wis.). Selenium content of the diets was determined by Covance Inc. (Madison, Wis.). […]
Thus, it was an object of the present invention to determine whether compositions and methods of the present invention could alter the expression levels (e.g., niRNA levels) of various genes. One group of genes analyzed were genes classically associated with selenium. As described above, the expression levels of genes were analyzed between mice with and without dietary selenium, or, between mice fed different sources of selenium) (See, e.g., Table 1, below).

[5] = system: Glutathione S-transferase, alpha 3 (Gsta3); assay: Intestinal gene expression: Gsta3; assay type: in vivo; conditions: mouse intestine; diet 1 ppm Se, 100 days; vs Se-deficient diets; negative = down; NS = not significant
From the text: as §1, §2, §3

[6] = system: Glutathione S-transferase, mu1 (Gstm1); assay: Intestinal gene expression: Gstm1; assay type: in vivo; conditions: mouse intestine; diet 1 ppm Se, 100 days; vs Se-deficient diets; negative = down; NS = not significant
From the text: as §1, §2, §3

[7] = system: Glutathione S-transferase, mu3 (Gstm3); assay: Intestinal gene expression: Gstm3; assay type: in vivo; conditions: mouse intestine; diet 1 ppm Se, 100 days; vs Se-deficient diets; negative = down; NS = not significant
From the text: as §1, §2, §3

With `C[Se]CC[C@H](N)C(=O)O` [SeM, selenomethionine] the “fold increase in expression of the Thioredoxin Reductase 1 gene” value [1] was 1.8 fold, the “Glo1 expression, reduction of expression” value [2] was “not significantly affected” and the “Spry2 gene expression, reduction” value [3] was “no alteration”.
In the case of `O=[Se](O)O` [Sod-sel, sodium selenite], the “body weights of mice” value [4] is reported as “No significant differences”, the “FC Gsta3 expression” value [5] is reported as −2.3 fold and the “FC Gstm1 expression” value [6] is reported as −2.4 fold. The “FC Gstm3 expression” value [7] was −2.7 fold.

Source: US20070155687A1, “Methods and compositions for altering cell function” (Alltech, Inc., priority 2005, published 2007)
